Source: patent US8765420B2, “Method for preparing pterocarpan” (priority 2010, dated 2014)

Biological target: T1, biphenyl dioxygenase of P. pseudoalcaligenes KF707 (SEQ ID NO:3) (Metapseudomonas furukawaii, UniProt Q52028)
T1 construct: expressed in transfected cells; host or cells: Escherichia coli JM109 (pJHF108)
Experiment: Biotransformation kinetics by whole cells of E. coli expressing biphenyl dioxygenase
Type: biochemical, Pseudomonas pseudoalcaligenes strain KF707
Conditions: for Corresponding epoxides produced after 5 h reaction: initial concentration of substrate 250 μM, whole cells of E. coli expressing BDO, 37° C., means of triplicate ± standard errors
Description: E. coli JM109 (pJHF108) was seed cultivated in 50 mL of LB medium containing ampicillin […] at 37° C. for 12 hours. The cultivated seed was inoculated to a 5-L fermentor (BioFlo 3000, Korea fermentor Co., Korea) containing 4.5 L of LB medium and […] of ampicillin, and mixed at 37° C. at 200 rpm for 8 hours. The culture broth was centrifuged at 8,000 g for 10 minutes using VS-21SMT centrifuge (Vision Scientific Co., Bucheon, Korea). Cells were washed three times with 100 mM minimal salt buffer and resuspended in the same buffer, adjusting to the optical density at 600 nm using a UV/visible spectrophotometer (Shimadzu, UV-1601PC, Kyoto, Japan).
Analytical HPLC was carried out using a Varian Prostar HPLC apparatus (Walnut Creek, Calif.) equipped with a photodiode array […] detector. For the analysis of isoflavan-4-ol stereoisomers and their metabolites, a Waters Spherisorb ODS-2 column ([…], 4.6 mm×25 cm, Milford, Mass.) was used. The mobile phase was operated as a linear gradient that made up of water-acetonitrile containing 0.1% formic acid (10% acetonitrile at 0 min, 40% acetonitrile at 15 min, 90% acetonitrile at 25 min, and 90% acetonitrile at 40 min). The flow rate was 1 mL/min and UV detection was performed at 270 nm. For the analysis of enantiomers of cis- and trans-isoflavan-4-ol, a Sumi Chiral OA-7000 column (5 mm, 4.6 mm×25 cm, Sumika Chemical Analysis Service, Ltd., Osaka, Japan) and mobile phase composed of 60:40 (v/v) of 20 mM phosphate buffer (pH 3.0) and acetonitrile were used. The flow rate was 1 mL/min and UV detection was performed at 270 nm.
Biotransformation kinetics by whole cells of E. coli expressing biphenyl dioxygenase was performed as follows. The bacterial culture was prepared as described above, resuspended in 50 mL of phosphate buffer containing 1 mM glucose in a 250 mL flask, and adjusted to a final culture concentration of OD 600 nm=0.6. Then, the bacterial culture was incubated with 250 μM each of four purified isoflavan-4-ol stereoisomers ((3S,4S)- and (3R,4R)-cis-isoflavan-4-ols and (3S,4R)- and (3R,4S)-trans-isoflavan-4-ols) on a rotary shaker (200 rpm) at 37° C. The bacterial cultures (2 mL) were extracted with ethyl acetate, and the solvent was evaporated to dryness as described above. Quantification of metabolites and parent compound by using HPLC with time was monitored in triplicate experiments. Due to the instability of metabolites which were produced from parent compound, the quantity was calculated from the peak area as compared to the standard curve of the parent compound.

T1 sequence (Q52028 whole entry M237T/S238T/M247I/H255Q/V258I/G268A/F277Y/M283S/M285L/D303E/T340I): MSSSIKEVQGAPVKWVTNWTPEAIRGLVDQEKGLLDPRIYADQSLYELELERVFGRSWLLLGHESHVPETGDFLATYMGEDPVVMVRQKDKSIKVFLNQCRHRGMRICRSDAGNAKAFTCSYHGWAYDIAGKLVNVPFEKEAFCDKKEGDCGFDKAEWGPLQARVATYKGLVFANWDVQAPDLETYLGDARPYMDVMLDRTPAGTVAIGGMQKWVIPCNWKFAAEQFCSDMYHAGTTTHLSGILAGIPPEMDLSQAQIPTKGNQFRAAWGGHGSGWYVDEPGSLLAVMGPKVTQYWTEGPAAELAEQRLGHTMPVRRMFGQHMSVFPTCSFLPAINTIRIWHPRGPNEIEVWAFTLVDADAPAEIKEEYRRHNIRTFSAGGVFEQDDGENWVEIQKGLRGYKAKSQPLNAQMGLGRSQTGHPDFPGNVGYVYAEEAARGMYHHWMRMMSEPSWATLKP

## O[C@H]1c2ccccc2OC[C@H]1c1ccccc1 (stereo in doubt) [(3R,4R)-cis-isoflavan-4-ol]
  Corresponding epoxides produced after 5 h reaction: 40 ± 4.0 µM

## O[C@@H]1c2ccccc2OC[C@H]1c1ccccc1 (stereo in doubt) [(3R,4S)-trans-isoflavan-4-ol]
  Corresponding epoxides produced after 5 h reaction: 163.3 µM
Listed as Trans-isoflavan-4-ol (3R,4S)
  Corresponding epoxides produced after 5 h reaction: 163.3 ± 6.8 µM

## O[C@H]1c2ccccc2OC[C@@H]1c1ccccc1 (stereo in doubt) [(3S,4R)-trans-isoflavan-4-ol]
  Corresponding epoxides produced after 5 h reaction: 141.1 µM
Listed as Trans-isoflavan-4-ol (3S,4R)
  Corresponding epoxides produced after 5 h reaction: 141.1 ± 6.2 µM

## O[C@@H]1c2ccccc2OC[C@@H]1c1ccccc1 (stereo in doubt) [(3S,4S)-cis-isoflavan-4-ol]
After 5 h of reaction
  epoxide production relative to that from (3R,4R)-cis-isoflavan-4-ol: about 4.8 fold
  Corresponding epoxides produced after 5 h reaction: 194.8 ± 5.5 µM
